Assay results published in US20220127247A1, “N-(PYRIDIN-2-YL)PYRIDINE-SULFONAMIDE DERIVATIVES AND THEIR USE IN THE TREATMENT OF DISEASE” (NOVARTIS AG, priority 2019, published 2022).

Biological target: T1, delF508-CFTR (Homo sapiens, UniProt P13569, DEL508-508)
T1 construct: expressed in transfected cells
Assay: Measurement of delF508-CFTR-HRP surface expression in CFBE41o- cells
Type: cell-based
Conditions: for EC50: HRP-tagged delF508-CFTR in CFBE41o- cells, 24 h with compound, luminescence, 10-point curve, top 10 μM; for Emax: efficacy relative to reference compound 3-(6-(1-(2,2-difluorobenzo[d][1,3]dioxol-5-yl)cyclopropane-1-carboxamido)-3-methylpyridin-2-yl)benzoic acid, CFBE41o- cells, 24 h, read-out: DelF508-CFTR-HRP Amax %
Outline: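 CFBE41o- cells stably expressing delF508-CFTR with HRP in the fourth extracellular loop, induced with 500 ng/mL doxycycline for 48 h, then treated with compound (top 10 μM, 10-point 3-fold) for 24 h at 37° C. Surface HRP detected by luminescence with cell-impermeant substrate; EC50 from logistic fit of triplicates, normalized to lowest concentration.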

T1 sequence (P13569 with tags, fused parts or gaps DEL508-508): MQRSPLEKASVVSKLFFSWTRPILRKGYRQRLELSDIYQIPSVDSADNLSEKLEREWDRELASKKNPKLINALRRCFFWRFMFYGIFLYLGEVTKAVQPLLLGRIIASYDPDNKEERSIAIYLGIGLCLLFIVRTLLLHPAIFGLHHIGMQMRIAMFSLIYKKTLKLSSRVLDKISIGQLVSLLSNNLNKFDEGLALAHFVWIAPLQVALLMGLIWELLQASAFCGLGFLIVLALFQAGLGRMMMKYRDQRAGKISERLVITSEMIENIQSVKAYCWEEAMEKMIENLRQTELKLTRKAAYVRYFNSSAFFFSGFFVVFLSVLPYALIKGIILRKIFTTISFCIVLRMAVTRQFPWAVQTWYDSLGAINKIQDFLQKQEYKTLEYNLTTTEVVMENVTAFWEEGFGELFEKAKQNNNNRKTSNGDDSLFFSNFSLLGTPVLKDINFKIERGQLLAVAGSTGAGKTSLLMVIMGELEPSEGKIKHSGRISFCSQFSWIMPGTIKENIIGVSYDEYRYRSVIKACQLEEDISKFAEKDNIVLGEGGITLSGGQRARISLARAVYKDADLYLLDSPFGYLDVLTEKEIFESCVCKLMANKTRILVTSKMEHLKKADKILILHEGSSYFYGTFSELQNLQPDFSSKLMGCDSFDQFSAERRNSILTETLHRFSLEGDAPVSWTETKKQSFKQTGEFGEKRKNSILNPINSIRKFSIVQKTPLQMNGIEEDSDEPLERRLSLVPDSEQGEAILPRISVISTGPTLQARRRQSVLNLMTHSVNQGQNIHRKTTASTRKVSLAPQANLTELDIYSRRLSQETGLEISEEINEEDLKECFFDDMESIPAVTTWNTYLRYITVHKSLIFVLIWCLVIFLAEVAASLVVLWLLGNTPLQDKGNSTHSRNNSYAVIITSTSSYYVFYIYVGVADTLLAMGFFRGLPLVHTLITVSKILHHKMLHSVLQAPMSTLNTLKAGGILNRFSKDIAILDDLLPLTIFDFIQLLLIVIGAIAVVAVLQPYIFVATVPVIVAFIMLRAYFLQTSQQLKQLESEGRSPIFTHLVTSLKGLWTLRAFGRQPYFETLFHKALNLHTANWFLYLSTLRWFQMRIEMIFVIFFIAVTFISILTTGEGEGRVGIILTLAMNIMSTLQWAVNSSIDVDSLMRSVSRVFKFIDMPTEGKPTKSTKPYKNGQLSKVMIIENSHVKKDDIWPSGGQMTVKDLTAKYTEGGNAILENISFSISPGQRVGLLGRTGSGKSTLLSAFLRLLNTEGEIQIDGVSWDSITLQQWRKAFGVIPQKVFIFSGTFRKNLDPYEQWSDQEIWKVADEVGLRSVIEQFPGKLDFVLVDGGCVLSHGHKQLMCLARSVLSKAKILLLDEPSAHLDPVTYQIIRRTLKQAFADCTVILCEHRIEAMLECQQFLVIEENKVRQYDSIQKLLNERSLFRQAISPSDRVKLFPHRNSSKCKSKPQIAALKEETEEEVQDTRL

Row | Structure (SMILES) | EC50 [nM] | Emax [%]
1 | Cc1ccc(F)cc1-c1nc(NS(=O)(=O)c2cccc(N(C)CC3(C(=O)O)CCC3)n2)ccc1C(F)(F)F [Compound 139, 1-(((6-(N-(6-(5-fluoro-2-methylphenyl)-5-(trifluoromethyl)pyridin-2-yl)sulfamoyl)pyridin-2-yl)(methyl)amino)methyl)cyclobutane-1-carboxylic Acid] | 1120 | 
2 | CCN(CCC(=O)O)c1cc(S(=O)(=O)Nc2ccc(Cl)c(-c3c(C)cccc3C)n2)ccn1 [Compound 140, 3-((4-(N-(5-chloro-6-(2,6-dimethylphenyl)pyridin-2-yl)sulfamoyl)pyridin-2-yl)(ethyl)amino)propanoic Acid] | 2920 | 209
3 | CCC(CC(=O)O)Nc1cc(S(=O)(=O)Nc2ccc(Cl)c(-c3c(C)cccc3C)n2)ccn1 (stereo not drawn) [Compound 141] | 3940 | 291
4 | Cc1cccc(C)c1-c1nc(NS(=O)(=O)c2ccnc(NC(C)CC(=O)O)c2)ccc1Cl (stereo not drawn) [Compound 142, 3-((4-(N-(5-chloro-6-(2,6-dimethylphenyl)pyridin-2-yl)sulfamoyl)pyridin-2-yl)amino)butanoic Acid] | 4460 | 84
5 | Cc1ccccc1-c1nc(NS(=O)(=O)c2cccc(NC(C(=O)O)C34CC5CC(CC(C5)C3)C4)n2)ccc1C(F)(F)F (stereo not drawn) [Compound 143, 2-(adamantan-1-yl)-2-((6-(N-(6-(o-tolyl)-5-(trifluoromethyl)pyridin-2-yl)sulfamoyl)pyridin-2-yl)amino)acetic Acid] | 2390 | 
6 | CCN(CCC(=O)O)c1cc(S(=O)(=O)Nc2ccc(Cl)c(-c3cc(F)ccc3C)n2)ccn1 [Compound 144, 3-((4-(N-(5-chloro-6-(5-fluoro-2-methylphenyl)pyridin-2-yl)sulfamoyl)pyridin-2-yl)(ethyl)amino)propanoic Acid] | 4550 | 52
7 | CCN(CCC(=O)O)c1cccc(S(=O)(=O)Nc2ccc(C(F)(F)F)c(-c3c(C)cccc3C)n2)n1 [Compound 145, 3-((6-(N-(6-(2,6-dimethylphenyl)-5-(trifluoromethyl)pyridin-2-yl)sulfamoyl)pyridin-2-yl)(ethyl)amino)propanoic Acid] | 1830 | 
8 | Cc1ccccc1-c1nc(NS(=O)(=O)c2cccc(NCC(=O)O)n2)ccc1C(F)(F)F [Compound 146, (6-(N-(6-(o-tolyl)-5-(trifluoromethyl)pyridin-2-yl)sulfamoyl)pyridin-2-yl)glycine] | 2500 | 60
9 | Cc1ccccc1-c1nc(NS(=O)(=O)c2cccc(N(CCC(=O)O)C3CCC3)n2)ccc1C(F)(F)F [Compound 147, 3-(cyclobutyl(6-(N-(6-(o-tolyl)-5-(trifluoromethyl)pyridin-2-yl)sulfamoyl)pyridin-2-yl)amino)propanoic acid] | 1150 | 802
10 | Cc1ccccc1-c1nc(NS(=O)(=O)c2cccc(N(CCC(=O)O)CCC(F)(F)F)n2)ccc1C(F)(F)F [Compound 150, 3-((6-(N-(6-(o-tolyl)-5-(trifluoromethyl)pyridin-2-yl)sulfamoyl)pyridin-2-yl)(3,3,3-trifluoropropyl)amino)propanoic Acid] | 1670 | 
11 | Cc1ccc(F)cc1-c1nc(NS(=O)(=O)c2cccc(N(CCC(=O)O)CCC(F)(F)F)n2)ccc1C(F)(F)F [Compound 151, 3-((6-(N-(6-(5-fluoro-2-methylphenyl)-5-(trifluoromethyl)pyridin-2-yl)sulfamoyl)pyridin-2-yl)(3,3,3-trifluoropropyl)amino)propanoic Acid] | 1900 | 
12 | CCCCN(CCC(=O)O)c1cccc(S(=O)(=O)Nc2ccc(C(F)(F)F)c(-c3ccccc3C)n2)n1 [Compound 152, 3-(butyl(6-(N-(6-(o-tolyl)-5-(trifluoromethyl)pyridin-2-yl)sulfamoyl)pyridin-2-yl)amino)propanoic Acid] | 780 | 641
13 | CCCCN(CCC(=O)O)c1cccc(S(=O)(=O)Nc2ccc(C(F)(F)F)c(-c3cc(F)ccc3C)n2)n1 [Compound 153, 3-(butyl(6-(N-(6-(5-fluoro-2-methylphenyl)-5-(trifluoromethyl)pyridin-2-yl)sulfamoyl)pyridin-2-yl)amino)propanoic Acid] | 820 | 770
14 | Cc1ccccc1-c1nc(NS(=O)(=O)c2cccc(N(CCCC(=O)O)CC(C)C)n2)ccc1Cl [Compound 154, 4-((6-(N-(5-chloro-6-(o-tolyl)pyridin-2-yl)sulfamoyl)pyridin-2-yl)(isobutyl)amino)butanoic Acid] | 930 | 686
15 | Cc1cccc(C)c1-c1nc(NS(=O)(=O)c2cccc(N(CCCC(=O)O)CC(C)C)n2)ccc1Cl [Compound 155, 4-((6-(N-(5-chloro-6-(2,6-dimethylphenyl)pyridin-2-yl)sulfamoyl)pyridin-2-yl)(isobutyl)amino)butanoic Acid] | 670 | 699
16 | COCCN(CCCC(=O)O)c1cccc(S(=O)(=O)Nc2ccc(C(F)(F)F)c(-c3ccccc3C)n2)n1 [Compound 158, 4-((2-methoxyethyl)(6-(N-(6-(o-tolyl)-5-(trifluoromethyl)pyridin-2-yl)sulfamoyl)pyridin-2-yl)amino)butanoic Acid] | 1810 | 839
